According to patent US20180238860A1, “INDIVIDUAL METHOD PREDICTIVE OF THE DNA-BREAKING GENOTOXIC EFFECTS OF CHEMICAL OR BIOCHEMICAL AGENTS” (priority 2015, published 2018):

How the values were obtained:
Format in all cases: cell-based, human
HMEC cells [1] = experiment: pH2AX foci 24 h after contacting, Table 4 lower part (HMEC endothelial cells); settings: line cell blank (below Hasp), 24 hours after contacting
Experimental: (§1) In one embodiment, on receipt, the tissue sample (typically the biopsy) is established in the form of an amplifiable cell line without a viral or chemical transformation agent according to an ancillary procedure well known to culture laboratories, as underlined by the publication of Elkind et al. “The radiobiology of cultured mammalian cell”, Gordon and Breach (1967). Once the number of cells is sufficient (typically after 1 to 3 weeks), the first experiments are carried out using the process according to the invention. A cell sample is prepared: The cells are inoculated on glass coverslips in Petri dishes. A portion of these coverslips are contaminated with metals or pesticides or any other DNA-breaking chemical or biochemical agent at different concentrations. A further portion is not contaminated; it represents the spontaneous state. During contamination, the cells remain in the culture incubator at 37° C.
(§2) For the contaminated cells, characteristics are acquired corresponding to the state after an incubation time with the DNA-breaking chemical or biochemical agent. Said characteristics are represented by foci corresponding to the marker pH2AX. The cells on glass coverslips are then fixed, lysed and hybridized. The following procedure, known per se (Bodgi et al, “A single formula to describe radiation-induced protein relocalization: towards a mathematical definition of individual radiosensitivity”, J Theor Biol. 21 p 333:135-45.2013):
(§3) the cells are fixed in 3% paraformaldehyde and 2% sucrose for 15 minutes at ambient temperature and permeabilized in 20 mM HEPES buffer solution (4-(2-hydroxyethyl)-1-piperazine ethane sulfonic acid) at pH 7.4, 50 mM NaCl, 3 mM MgCl2, 300 mM sucrose, 0.5% Triton X-100 (a non-ionic surfactant having the formula t-Oct-C6H4-(OCH2CH2)×OH where x=9-10, CAS No. 9002-93-1, supplied for example by Sigma Aldrich) for 3 minutes. The glass coverslips are then washed in phosphate buffer saline (known as the acronym PBS) before immunological staining. The incubation took place for 40 min at 37° C. in PBS supplemented with 2% bovine serum albumin (known as the acronym BSA or fraction V, supplied for example by Sigma Aldrich) and was followed by a wash with PBS. Anti-pH2AX primary antibodies are used at a concentration of 1:800. The incubations with anti-mouse FITC or anti-rabbit TRITC secondary antibodies (1:100, supplied by Sigma Aldrich) were performed at 37° C. in 2% BSA for 20 minutes. Glass coverslips were treated with Vectashield™ containing DAPI (4,6-Diamidino-2-phenylindole) to label the nucleus. Staining with DAPI also makes it possible, indirectly, to determine the number of cells in phase G1 (nuclei with homogenous DAPI staining), in phase S (nuclei with numerous pH2AX foci), in phase G2 (nuclei with heterogeneous DAPI staining) and metaphases (visible chromosomes).
(§4) The results are acquired using these coverslips on an immunofluorescence microscope (Olympus model for example). The reading may be direct (typically by counting the foci on at least 50 cells in G0/G1 for each point) or using dedicated image analysis software, or on an automated microscope; preferably the software or automated microscope methods are calibrated with manual determinations.
(§5) The tables hereinafter summarize the results of numerous experiments which were carried out as described in the “Detailed description” section above.
(§6) In tables 3 and 4, “pH2AX” corresponds to the mean number of nuclear foci obtained with the marker pH2AX, 24 hours after contacting the cell sample with the chemical agent at the concentration C (NpH2AX(24 h, C)), and where “Micronuclei” corresponds to the mean number of micronuclei observed per 100 cells 24 hours after contacting the cell sample with the chemical agent at the concentration C(NMN(24 h, C)).

HMEC cells [2] = experiment: Micronuclei per 100 cells 24 h after contacting, Table 4 lower part (HMEC); settings: line cell blank (below Hasp)
Experimental: as §1, §3
(§7) Counterstaining with DAPI (a DNA marker known to those skilled in the art) makes it possible to locate the nucleus to situate the cytoplasmic or nuclear location to quantify the micronuclei, which are complementary cell markers to the data on the foci.
as §5, §6

Ha (astrocyte cells) [3] = experiment: pH2AX foci 24 h after contacting, Ha astrocyte cells; settings: Ha, 24 hours after contacting
Experimental: as §1, §2, §3, §4, §5
(§8) In tables 3 and 4, “pH2AX” corresponds to the mean number of nuclear foci obtained with the marker pH2AX, 24 hours after contacting the cell sample with the chemical agent at the concentration C (NpH2AX(24 h, C)), and where “Micronuclei” corresponds to the mean number of micronuclei observed per 100 cells 24 hours after contacting the cell sample with the chemical agent at the concentration C(NMN(24 h, C)). […]

Ha (astrocyte cells) [4] = experiment: Micronuclei per 100 cells 24 h after contacting, Ha astrocyte cells
Experimental: as §1, §3, §7, §5, §6
(§9) Table 4 presents a detection of number of pH2AX foci and number of micronuclei 24 hours after contacting control nervous system cell lines Ha (astrocyte cells), Hah (hippocampus astrocyte cells) and Hasp (spinal cord astrocyte cells) with a metallic compound (AlCl3, Cu, CuCl2, CuSO4, Pb(NO3)2, CdCl2, Cd-acetate or Cd-acetate-citrate) according to the concentration of said metallic compound used.

[5] = test system: Hah (hippocampus astrocyte cells); experiment: pH2AX foci 24 h after contacting, Hah hippocampus astrocyte cells
Experimental: as §1, §2, §3, §4, §5, §8

[6] = test system: Hah (hippocampus astrocyte cells); experiment: Micronuclei per 100 cells 24 h after contacting, Hah
Experimental: as §1, §3, §7, §5, §6, §9

[7] = test system: Hasp (spinal cord astrocyte cells); experiment: pH2AX foci 24 h after contacting, Hasp spinal cord astrocyte cells
Experimental: as §1, §2, §3, §4, §5, §8

[8] = test system: Hasp (spinal cord astrocyte cells); experiment: Micronuclei per 100 cells 24 h after contacting, Hasp
Experimental: as §1, §3, §7, §5, §6, §9

CC(=O)[O-].CC(=O)[O-].[Cd+2] [Cd-acetate]
pH2AX (HMEC cells [1]; 10 μM): 5 foci | pH2AX (HMEC cells [1]; 30 μM): 5.5 foci | pH2AX (HMEC cells [1]; 100 μM): 7 foci | Micronuclei (HMEC cells [2]; 10 μM): 5 per 100 cells | Micronuclei (HMEC cells [2]; 30 μM): 10 per 100 cells | Micronuclei (HMEC cells [2]; 100 μM): 10 per 100 cells

O=S(=O)([O-])[O-].[Cu+2] [CuSO4]
pH2AX (HMEC cells [1]; 3 μM): 1.9 foci | pH2AX (HMEC cells [1]; 10 μM): 2.3 foci | pH2AX (HMEC cells [1]; 30 μM): 3.4 foci | pH2AX (HMEC cells [1]; 100 μM): 6.4 foci | pH2AX (HMEC cells [1]; 300 μM): 20.1 foci | pH2AX (HMEC cells [1]; 1000 μM): 30.2 foci | Micronuclei (HMEC cells [2]; 3 μM): 3 per 100 cells | Micronuclei (HMEC cells [2]; 10 μM): 5 per 100 cells | Micronuclei (HMEC cells [2]; 30 μM): 4.7 per 100 cells | Micronuclei (HMEC cells [2]; 100 μM): 5.3 per 100 cells | Micronuclei (HMEC cells [2]; 300 μM): 9.3 per 100 cells | Micronuclei (HMEC cells [2]; 1000 μM): 4 per 100 cells

[Cu] [Cu]
pH2AX (Ha (astrocyte cells) [3]; 10 μM): 0.3 foci | pH2AX (Ha (astrocyte cells) [3]; 30 μM): 0.62 foci | pH2AX (Ha (astrocyte cells) [3]; 100 μM): 2.55 foci | pH2AX (Ha (astrocyte cells) [3]; 300 μM): 0 foci | pH2AX (Ha (astrocyte cells) [3]; 1000 μM): 0 foci | Micronuclei (Ha (astrocyte cells) [4]; 10 μM): 4 per 100 cells | Micronuclei (Ha (astrocyte cells) [4]; 30 μM): 5 per 100 cells | Micronuclei (Ha (astrocyte cells) [4]; 100 μM): 13 per 100 cells | Micronuclei (Ha (astrocyte cells) [4]; 300 μM): 20 per 100 cells | Micronuclei (Ha (astrocyte cells) [4]; 1000 μM): 50 per 100 cells | pH2AX ([5]; 10 μM): 1.01 foci | pH2AX ([5]; 30 μM): 1.87 foci | pH2AX ([5]; 100 μM): 2.62 foci | pH2AX ([5]; 300 μM): 5.45 foci | pH2AX ([5]; 1000 μM): 6.61 foci | Micronuclei ([6]; 10 μM): 6 per 100 cells | Micronuclei ([6]; 30 μM): 10.7 per 100 cells | Micronuclei ([6]; 100 μM): 20.7 per 100 cells | Micronuclei ([6]; 300 μM): 46.7 per 100 cells | Micronuclei ([6]; 1000 μM): 73.3 per 100 cells | pH2AX ([7]; 10 μM): 0.29 foci | pH2AX ([7]; 30 μM): 0.64 foci | pH2AX ([7]; 100 μM): 1.13 foci | pH2AX ([7]; 300 μM): 1.78 foci | pH2AX ([7]; 1000 μM): 2.36 foci | Micronuclei ([8]; 10 μM): 4 per 100 cells | Micronuclei ([8]; 30 μM): 7 per 100 cells | Micronuclei ([8]; 100 μM): 9 per 100 cells | Micronuclei ([8]; 300 μM): 10 per 100 cells | Micronuclei ([8]; 1000 μM): 16 per 100 cells

Cd-acetate-citrate
pH2AX (HMEC cells [1]; 10 μM): 1 foci | pH2AX (HMEC cells [1]; 30 μM): 4.75 foci | pH2AX (HMEC cells [1]; 100 μM): 7 foci

[Cl][Cu][Cl] [CuCl2]
pH2AX (HMEC cells [1]; 3 μM): 1.6 foci | pH2AX (HMEC cells [1]; 10 μM): 1.9 foci | pH2AX (HMEC cells [1]; 30 μM): 1.6 foci | pH2AX (HMEC cells [1]; 100 μM): 1.5 foci | pH2AX (HMEC cells [1]; 300 μM): 5.3 foci | pH2AX (HMEC cells [1]; 1000 μM): 21.4 foci | Micronuclei (HMEC cells [2]; 3 μM): 4 per 100 cells | Micronuclei (HMEC cells [2]; 10 μM): 6.7 per 100 cells | Micronuclei (HMEC cells [2]; 30 μM): 5.3 per 100 cells | Micronuclei (HMEC cells [2]; 100 μM): 6.7 per 100 cells | Micronuclei (HMEC cells [2]; 300 μM): 7.3 per 100 cells | Micronuclei (HMEC cells [2]; 1000 μM): 4 per 100 cells
